The values below come from US4913907A, “Porphycene anti-cancer agents and treatment methods” (Cytopharm, Inc., priority 1988, dated 1990).

One data set concerns MS-2 fibrosarcoma. Kind of data set: Phototherapy of tumor-bearing mice, tumor response. Type of data set: in vivo, Female Balb/c mice. The procedure:
By the seventh day after transplantation, the tumors had reached a diameter of approximately 0.8 cm.
(§1) Each mouse was intravenously injected with 2 mg./kg. of 2,7,12,17-tetra-n-propylporphycene (TPP) incorporated into small umilamellar liposomes of dipalmitoyl-phosphatidylcholine (DPPC), prepared according to the procedures of Example 2, on the seventh day after transplantation. At this time the diameter of the tumor was approximately 0.8 cm.
(§2) 24 hours after TPP injection, the tumor area was exposed to 600-690 nm. light isolated by optical filtration from the emission of a 250 W quartz-halogen lamp through a set of optical filters (Teclas, Lugano, Switzerland). The light beam was focused into a bundle of optical fibers having an external diameter of 6 mm. The tip of the fiber was kept at a distance of 1 cm from the tissue surface. The lamp was operated at a dose-rate of 230 mW/cm^2, and the total delivered light dose was 150 J/cm^2 or 300 J/cm^2.

Another data set relates to normal skin. Nature of the data set: Phototherapy, photoinduced damage of irradiated normal skin. Type of data set: in vivo, Female Balb/c mice. As to the method: as §1, §2
An equal area of normal skin on the left hind leg was irradiated in each mouse immediately after tumor irradiation using an identical protocol.

A short description of data set [1]: Tissue analysis: recovery of TPP from serum and tissues after injection. Conditions: 2 mg/kg; for concentration at 3 h / concentration at 24 h: mouse, iv, average of 6 mice, maximum deviation ±20%; for concentration at 3 h: 3 hours after injection; for concentration at 24 h: 24 hours after injection. Type of data set: in vivo, mice. The procedure: At each of 3 hours and 24 hours after injection, six mice were sacrificed by exposure to ether vapor, and the serum or specific tissue were removed. About 2 mL of blood was taken intracardially and centrifuged for 15 minutes at 3,000 rpm to remove the erythrocytes. The serum was collected, diluted with 2% aqueous SDS and assayed for TPP content spectrophotofluorimetrically (λex =560 nm). The fluorescence emitted in the 580-740 nm interval was converted into TPP concentration by interpolation with a calibration plot.
The tumor and predetermined normal tissues were removed, washed twice with PBS, and a weighed amount of tissue (approximately 200 mg) was finely minced and homogenized in a Potter vessel with 4 mL chloroform. The dispersion was centrifuged at 3,000 rpm for 15 minutes; the supernatant was collected and its TPP content was estimated spectrophotofluorimetrically as described above. Rehomogenization of the sediment under the same conditions gave less than 3% of the TPP extracted in the original step. […]
The recovery of TPP from serum and various tissues of the tumor-bearing mice at 3 hours and 24 hours after injection are shown in Table 1. The samples from each animal were analyzed separately, and are table values represent the average recovery data from the single tissues of 6 mice. The maximum deviation from the reported values was ±20%.

A short description of data set [2]: Distribution and clearance in a mouse model (statement in the description). In kind it is in vivo.
For data set [3] the following is noted: cited from earlier work.
Another data set can be described thus: Solubility. In kind it is physicochemical.
Where [4] appears, read: 2 mg/kg i.v., 300 J/cm^2 at 24 hours after TPP injection.
[5] abbreviates: brain, read-out: Recovery, brain.
[6] abbreviates: liver, read-out: Recovery, liver.
[7] abbreviates: muscle, read-out: Recovery, muscle.
The mark [8] stands for this setting: tumor, read-out: Recovery, tumor.

SMILES strings stand for the structures. Read-outs that look alike come from different tables or passages of the source.

Regarding `CCCC1=Cc2nc1ccc1[nH]c(cc1CCC)c1nc(ccc3[nH]c2cc3CCC)C(CCC)=C1` [TPP, 2,7,12,17-tetra-n-propylporphycene], in the data set on MS-2 fibrosarcoma (2 mg/kg i.v. in DPPC liposomes, 300 J/cm^2 of 600-690 nm light at 24 hours after TPP injection), the “onset of tumor necrosis” value is reported as “massive tumor necrosis”. Further, in the data set on MS-2 fibrosarcoma (2 mg/kg i.v., 150 J/cm^2 of red light at 24 hours after TPP injection), the tumor necrosis result is recorded as “equally deep necrosis, however less extensive”. Besides, the “eschar formation complete within” value with MS-2 fibrosarcoma (setting [4]) was at most 3 days. The “time until depth of necrosis reached bone” value in the data set on MS-2 fibrosarcoma (setting [4]) was “about 7 days”. In addition, in the data set on normal skin (irradiated TPP-treated mice), the “erythema, disappearance” value is listed as “disappeared within about one week”. Moreover, the “photoinduced damage at the level of the normal skin” value in the data set on normal skin (irradiated TPP-treated mice, most animals, mainly erythema) is on record as “developed some photoinduced damage at the level of the normal skin”. Further, the “erythema, diameter” value in the data set with normal skin (irradiated TPP-treated mice, generally) is on record as “less than 0.3 cm”. For the same compound, the “photosensitivity at the irradiated normal skin” value in the data set on normal skin (left hind leg, identical irradiation protocol) is on record as “Some photosensitivity was also observed”. Further, the concentration at 3 h is under 10 ng/g in data set [1] (setting [5]); 1250 ng/g in data set [1] (kidneys, read-out: Recovery, kidneys); 13000 ng/g in data set [1] (setting [6]); 140 ng/g in data set [1] (setting [7]); 290 ng/g in data set [1] (skin, read-out: Recovery, skin); 690 ng/g in data set [1] (setting [8]). Moreover, the concentration at 24 h in data set [1] (setting [5]) is under 10 ng/g; in data set [1] (setting [6]) it was 11100 ng/g; in data set [1] (setting [7]) it was 90 ng/g; in data set [1] (serum, read-out: Recovery, serum), 25600 ng/mL; in data set [1] (skin, read-out: Recovery, skin), 440 ng/g; in data set [1] (spleen, read-out: Recovery, spleen), 2940 ng/g. Also, in data set [1] (setting [8]), the concentration at 24 h was determined as 1500 ng/g. In addition, the “recovery from the tumor” value in data set [1] (tumor tissue, time not stated) was “approximately 1 μg/g”. The “tumor uptake as compared to skin or muscle tissue” value in data set [2] (24 hours post-injection) is on record as “concentrate preferentially in tumor tissue as compared to skin or muscle tissue”. Moreover, in data set [2] (mouse model), the drug clearance route entry is “via the liver rather than by the kidneys”. In addition, in data set [2] (mouse model), the “uptake by the brain” value is on record as “little or no porphycene uptake by the brain”. Also, in data set [3], the “absorption above 620 nm” value is listed as “high absorption above 620 nm”.

Consider `C1=Cc2nc1ccc1ccc([nH]1)c1nc(ccc3ccc2[nH]3)C=C1` [porphycene], for which the “solubility in water and pharmaceutically suitable solvents” value in the data set “Solubility” is “not soluble in water and pharmaceutically suitable solvents”. Also, the “absorption above 620 nm” value in data set [3] was “high absorption above 620 nm”.
